How the values were obtained:
RECON (mRECON) = molecular target: T1, RECON (mRECON) (Mus musculus, UniProt Q8VC28); assay: DRaCALA; type: binding
T1 sequence (Q8VC28 1-323): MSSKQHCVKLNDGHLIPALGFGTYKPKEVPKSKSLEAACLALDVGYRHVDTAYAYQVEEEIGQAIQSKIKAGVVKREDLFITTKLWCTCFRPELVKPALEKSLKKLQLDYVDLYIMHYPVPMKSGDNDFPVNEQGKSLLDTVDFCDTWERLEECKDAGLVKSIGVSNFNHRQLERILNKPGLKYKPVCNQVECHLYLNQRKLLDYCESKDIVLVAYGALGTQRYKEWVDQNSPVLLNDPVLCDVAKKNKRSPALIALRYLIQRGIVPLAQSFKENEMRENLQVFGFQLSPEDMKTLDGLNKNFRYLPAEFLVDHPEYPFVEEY

CnpB = CnpB (Mycobacterium tuberculosis, UniProt P71615); assay: DRaCALA, serial dilutions of protein; type: binding
Chain of CnpB (P71615 whole entry): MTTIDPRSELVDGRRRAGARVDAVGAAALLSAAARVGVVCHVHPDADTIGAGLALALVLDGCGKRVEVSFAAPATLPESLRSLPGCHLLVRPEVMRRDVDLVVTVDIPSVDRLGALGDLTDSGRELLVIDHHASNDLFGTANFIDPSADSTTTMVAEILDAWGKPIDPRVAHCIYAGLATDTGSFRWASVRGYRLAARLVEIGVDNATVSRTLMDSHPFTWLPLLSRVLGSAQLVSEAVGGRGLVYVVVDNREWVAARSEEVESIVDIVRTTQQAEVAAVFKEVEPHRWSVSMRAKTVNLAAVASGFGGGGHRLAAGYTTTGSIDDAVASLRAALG

Nc1ncnc2c1ncn2[C@@H]1O[C@@H]2COP(=O)(O)O[C@H]3[C@@H](O)[C@H](n4cnc5c(N)ncnc54)O[C@@H]3COP(=O)(O)O[C@H]2[C@H]1O [3’3’-c-di-AMP]
Kd (RECON (mRECON)): 68 nM
Kd (CnpB): ~3000 nM

From PMC8715907 (Chembiochem : a European journal of chemical biology, 2020)
